{"source": "patent US7763663B2", "about": "“Polysaccharide-containing block copolymer particles and uses thereof” (priority 2001, dated 2010)", "test_system": "ear swelling", "conditions": "conventional form, 200 mg dose (highest dosage used), topical, after 6 hours of exposure, croton oil", "text": "Croton oil was applied to the left and right ears of five animals to cause inflammation. Two hours later, a nanoparticle preparation of Celebrex or conventional form of Celebrex® was applied topically to the left or right ear.", "data": [{"smiles": "Cc1ccc(-c2cc(C(F)(F)F)nn2-c2ccc(S(N)(=O)=O)cc2)cc1", "note": "[Celebrex® delivered in conventional form]", "values": [{"measurement": "reduction in ear swelling", "result": 60, "unit": "%"}]}]}
